What was measured:
Test in all cases: relative viability (nuclei count vs DMSO), 5 days (fraction); higher = more cells survive
Tivantinib + Phenformin = compound: O=C1NC(=O)[C@@H](c2cn3c4c(cccc24)CCC3)[C@@H]1c1c[nH]c2ccccc12 [Tivantinib] + N=C(N)NC(=N)NCCc1ccccc1 [Phenformin] (partner 250 µM)
How it was run: (§1)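 Lung cancer cell lines were pin-tool dosed in 1536-well plates on the day after seeding, with either a lone drug or a fixed anchor-drug dose plus five library-drug doses (not always all listed) in √10 steps. Nuclei were counted on 4× images after 5 days. Relative viability is the ratio of treated-well to vehicle-well nuclei counts, with each value a median of duplicate plates.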

Crenolanib + Navitoclax = compound: CC1(COc2ccc3c(c2)ncn3-c2ccc3cccc(N4CCC(N)CC4)c3n2)COC1 [Crenolanib] + CC1(C)CCC(c2ccc(Cl)cc2)=C(CN2CCN(c3ccc(C(=O)NS(=O)(=O)c4ccc(N[C@H](CCN5CCOCC5)CSc5ccccc5)c(S(=O)(=O)C(F)(F)F)c4)cc3)CC2)C1 [Navitoclax] (partner 0.5 µM)
How it was run: as §1

Crenolanib + Bortezomib = compound: CC1(COc2ccc3c(c2)ncn3-c2ccc3cccc(N4CCC(N)CC4)c3n2)COC1 [Crenolanib] + CC(C)C[C@H](NC(=O)[C@H](Cc1ccccc1)NC(=O)c1cnccn1)B(O)O [Bortezomib] (partner 0.002 µM)
How it was run: as §1

Crenolanib + Pemetrexed = compound: CC1(COc2ccc3c(c2)ncn3-c2ccc3cccc(N4CCC(N)CC4)c3n2)COC1 [Crenolanib] + Nc1nc2[nH]cc(CCc3ccc(C(=O)N[C@@H](CCC(=O)O)C(=O)O)cc3)c2c(=O)[nH]1 [Pemetrexed] (partner 0.2 µM)
How it was run: as §1

Cell Line	relative viability (Tivantinib + Phenformin; first compound 0.01 µM)	relative viability (Tivantinib + Phenformin; first compound 0.03162 µM)	relative viability (Tivantinib + Phenformin; first compound 0.1 µM)	relative viability (Tivantinib + Phenformin; first compound 0.3162 µM)	relative viability (Crenolanib + Navitoclax; first compound 0.01 µM)	relative viability (Crenolanib + Navitoclax; first compound 0.03162 µM)	relative viability (Crenolanib + Navitoclax; first compound 0.1 µM)	relative viability (Crenolanib + Navitoclax; first compound 0.3162 µM)	relative viability (Crenolanib + Navitoclax; first compound 1 µM)	relative viability (Crenolanib + Bortezomib; first compound 0.01 µM)	relative viability (Crenolanib + Bortezomib; first compound 0.03162 µM)	relative viability (Crenolanib + Bortezomib; first compound 0.1 µM)	relative viability (Crenolanib + Bortezomib; first compound 0.3162 µM)	relative viability (Crenolanib + Bortezomib; first compound 1 µM)	relative viability (Crenolanib + Pemetrexed; first compound 0.01 µM)	relative viability (Crenolanib + Pemetrexed; first compound 0.03162 µM)	relative viability (Crenolanib + Pemetrexed; first compound 0.1 µM)	relative viability (Crenolanib + Pemetrexed; first compound 0.3162 µM)	relative viability (Crenolanib + Pemetrexed; first compound 1 µM)
NCI-H1355	0.474	0.475	0.439	0.436	1.08	0.897	0.999	1.22	0.825	1.33	1.15	1.3	1.37	0.951	1.07	1.12	0.947	1.13	1.01
NCI-H1437	0.3	0.278	0.275	0.351	1.1	1.11	1.15	1.18	1.11	0.48	0.408	0.557	0.515	0.526	0.336	0.3	0.297	0.352	0.336
NCI-H1650	0.438	0.352	0.416	0.32	1.22	1.13	1.14	1.6	1.34	0.217	0.194	0.197	0.205	0.203	0.438	0.395	0.38	0.371	0.459
NCI-H1651	0.348	0.287	0.318	0.376	1.1	1.07	0.935	1.23	1.03	0.982	0.894	0.904	0.926	0.913	0.573	0.599	0.592	0.566	0.62
NCI-H1666	0.566	0.576	0.531	0.552	1.07	0.998	0.872	1.19	0.971	0.9	0.711	0.858	1.01	0.667	0.886	0.855	0.855	0.921	0.831
NCI-H1734	0.401	0.346	0.386	0.451	0.846	0.778	0.796	0.952	0.886	0.979	1.09	0.919	1.22	0.93	0.441	0.423	0.423	0.395	0.38
NCI-H1755	0.591	0.591	0.589	0.666	0.974	1.02	0.998	1.01	0.993	1.03	0.993	1.01	0.967	0.909	0.468	0.43	0.416	0.499	0.453
NCI-H1792	0.396	0.567	0.297	0.492	0.656	0.408	0.579	0.673	0.642	1.03	0.882	0.879	1.13	0.94	0.738	0.853	0.8	0.968	0.803

Reference: the supplement of paper PMC10307832
